Experimental data from PubChem BioAssay (NCI).
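1) Cells in 96-well plates. 2) Compound, 48 h, 5 concentrations. 3) Linear interpolation between surrounding doses. 4) Unreached endpoint = highest concentration. GI50 = concentration required for 50% inhibition of growth. Definition used: TGI = concentration required for complete inhibition of growth.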

Columns and labels:
Test in all cases: NCI anticancer screen, dose series, 48 h
[1] = tested on: 786-0 renal
[2] = tested on: A498 renal
[3] = tested on: A549 NSCLC
[4] = tested on: ACHN renal
[5] = tested on: BT-549 breast
[6] = tested on: CAKI-1 renal
[7] = tested on: CCRF-CEM leukemia
[8] = tested on: COLO 205 colon
[9] = tested on: DU-145 prostate
[10] = tested on: EKVX NSCLC
[11] = tested on: HCC-2998 colon
[12] = tested on: HCT-116 colon
[13] = tested on: HCT-15 colon
[14] = tested on: HL-60(TB) leukemia
[15] = tested on: HOP-62 NSCLC
[16] = tested on: HOP-92 NSCLC
[17] = tested on: HS 578T breast
[18] = tested on: HT29 colon
[19] = tested on: IGROV1 ovarian
[20] = tested on: K-562 leukemia
[21] = tested on: KM12 colon
[22] = tested on: LOX IMVI melanoma
[23] = tested on: M14 melanoma
[24] = tested on: MALME-3M melanoma
[25] = tested on: MCF7 breast
[26] = tested on: MDA-MB-231 breast
[27] = tested on: MDA-MB-435
[28] = tested on: MOLT-4 leukemia
[29] = tested on: NCI-H226 lung
[30] = tested on: NCI-H23 lung
[31] = tested on: NCI-H460 lung
[32] = tested on: NCI-H522 lung
[33] = tested on: NCI/ADR-RES ovarian
[34] = tested on: OVCAR-3 ovarian
[35] = tested on: OVCAR-4 ovarian
[36] = tested on: OVCAR-5 ovarian
[37] = tested on: OVCAR-8 ovarian
[38] = tested on: PC-3 prostate
[39] = tested on: RPMI-8226 leukemia
[40] = tested on: RXF 393 renal
[41] = tested on: SF-268 CNS
[42] = tested on: SF-295 CNS
[43] = tested on: SF-539 CNS
[44] = tested on: SK-MEL-2 melanoma
[45] = tested on: SK-MEL-28 melanoma
[46] = tested on: SK-MEL-5 melanoma
[47] = tested on: SK-OV-3 ovarian
[48] = tested on: SN12C renal
[49] = tested on: SNB-19 CNS
[50] = tested on: SNB-75 CNS
[51] = tested on: SR leukemia
[52] = tested on: SW-620 colon
[53] = tested on: T-47D breast
[54] = tested on: TK-10 renal
[55] = tested on: U251 CNS
[56] = tested on: UACC-257 melanoma
[57] = tested on: UACC-62 melanoma
[58] = tested on: UO-31 renal

## CC(=O)Oc1ccccc1C(=O)Nc1cc(C(C)C)ccc1C
[1]
  GI50: 5.92 µM
  TGI: 26.6 µM
[2]
  GI50: 5.22 µM
  TGI: 33.8 µM
[3]
  GI50: 5.01 µM
  TGI: > 100 µM
[4]
  GI50: 4.43 µM
  TGI: 51.1 µM
[5]
  GI50: 2.63 µM
  TGI: 8.34 µM
[6]
  GI50: 4.5 µM
  TGI: 27.9 µM
[7]
  GI50: 6.19 µM
  TGI: > 100 µM
[8]
  GI50: 18.3 µM
  TGI: 36.2 µM
[9]
  GI50: 8.38 µM
  TGI: > 100 µM
[10]
  GI50: 3.94 µM
  TGI: 30 µM
[11]
  GI50: 4.62 µM
  TGI: 20 µM
[12]
  GI50: 4.49 µM
  TGI: 16.7 µM
[13]
  GI50: 4.13 µM
  TGI: 16.3 µM
[14]
  GI50: 4.66 µM
  TGI: 38.3 µM
[15]
  GI50: 11.2 µM
  TGI: 44.9 µM
[16]
  GI50: 2.54 µM
  TGI: 8.4 µM
[17]
  GI50: 4.67 µM
  TGI: 34.7 µM
[18]
  GI50: 29.8 µM
  TGI: > 100 µM
[19]
  GI50: 4.44 µM
  TGI: 45.7 µM
[20]
  GI50: 3.8 µM
  TGI: 56.5 µM
[21]
  GI50: 4.61 µM
  TGI: 32.3 µM
[22]
  GI50: 3.94 µM
  TGI: 15.2 µM
[23]
  GI50: 5.31 µM
  TGI: 22.4 µM
[24]
  GI50: 2.97 µM
  TGI: 15.1 µM
[25]
  GI50: 3.83 µM
  TGI: 42.2 µM
[26]
  GI50: 9.92 µM
  TGI: 50.4 µM
[27]
  GI50: 4.08 µM
  TGI: 23.4 µM
[28]
  GI50: 4.2 µM
  TGI: 29.7 µM
[29]
  GI50: 2.55 µM
  TGI: 10.4 µM
[30]
  GI50: 2.71 µM
  TGI: 9.84 µM
[31]
  GI50: 3.99 µM
  TGI: > 100 µM
[32]
  GI50: 2.34 µM
  TGI: 7.86 µM
[33]
  GI50: 3.74 µM
  TGI: 24.8 µM
[34]
  GI50: 4.38 µM
  TGI: > 100 µM
[35]
  GI50: 3.44 µM
  TGI: > 100 µM
[36]
  GI50: 20.4 µM
  TGI: > 100 µM
[37]
  GI50: 4.9 µM
  TGI: > 100 µM
[38]
  GI50: 4.31 µM
  TGI: 56.8 µM
[39]
  GI50: 3.9 µM
  TGI: > 100 µM
[40]
  GI50: 2.55 µM
  TGI: 9.78 µM
[41]
  GI50: 7.14 µM
  TGI: > 100 µM
[42]
  GI50: 4.46 µM
  TGI: 18.8 µM
[43]
  GI50: 4.61 µM
  TGI: 19 µM
[44]
  GI50: 3.1 µM
  TGI: 12.2 µM
[45]
  GI50: 3.93 µM
  TGI: 20.6 µM
[46]
  GI50: 2.27 µM
  TGI: 5.74 µM
[47]
  GI50: 5.88 µM
  TGI: 41.6 µM
[48]
  GI50: 3.73 µM
  TGI: 20.7 µM
[49]
  GI50: 3.52 µM
  TGI: 23.1 µM
[50]
  GI50: 4.09 µM
  TGI: 27.6 µM
[51]
  GI50: 3.56 µM
  TGI: 30.9 µM
[52]
  GI50: 9.34 µM
  TGI: 28.5 µM
[53]
  GI50: 2.62 µM
  TGI: > 100 µM
[54]
  GI50: 2.96 µM
  TGI: 12.8 µM
[55]
  GI50: 4.07 µM
  TGI: 28.5 µM
[56]
  GI50: 4.33 µM
  TGI: 33 µM
[57]
  GI50: 2.49 µM
  TGI: 7.59 µM
[58]
  GI50: 2.93 µM
  TGI: 11.7 µM

## CC(=C(c1ccc(OCCN(C)C)cc1)c1ccc(OCCN(C)C)cc1)c1ccc(Cl)cc1
[1]
  GI50: 0.591 µM
  TGI: 1.16 µM
[2]
  GI50: 3.2 µM
  TGI: 7.81 µM
[3]
  GI50: 1.04 µM
  TGI: 4.14 µM
[4]
  GI50: 0.709 µM
  TGI: 1.57 µM
[5]
  GI50: 3.17 µM
  TGI: 7.78 µM
[6]
  GI50: 0.652 µM
  TGI: 1.69 µM
[7]
  GI50: 0.657 µM
  TGI: 1.84 µM
[8]
  GI50: 0.621 µM
  TGI: 1.27 µM
[9]
  GI50: 1.38 µM
  TGI: 4.9 µM
[10]
  GI50: 1.66 µM
  TGI: 6.11 µM
[11]
  GI50: 0.617 µM
  TGI: 1.31 µM
[12]
  GI50: 0.544 µM
  TGI: 1.11 µM
[13]
  GI50: 0.625 µM
  TGI: 1.36 µM
[14]
  GI50: 0.708 µM
  TGI: 1.64 µM
[15]
  GI50: 3.3 µM
  TGI: 8.16 µM
[16]
  GI50: 0.74 µM
  TGI: 3.04 µM
[17]
  GI50: 1.37 µM
  TGI: 5.14 µM
[18]
  GI50: 0.615 µM
  TGI: 1.49 µM
[19]
  GI50: 0.826 µM
  TGI: 2.22 µM
[20]
  GI50: 0.77 µM
  TGI: 7.71 µM
[21]
  GI50: 1.45 µM
  TGI: 3.56 µM
[22]
  GI50: 0.542 µM
  TGI: 1.03 µM
[23]
  GI50: 0.614 µM
  TGI: 1.24 µM
[24]
  GI50: 0.57 µM
  TGI: 1.08 µM
[25]
  GI50: 0.508 µM
  TGI: 1.02 µM
[26]
  GI50: 0.687 µM
  TGI: 1.56 µM
[27]
  GI50: 0.577 µM
  TGI: 1.12 µM
[28]
  GI50: 0.713 µM
  TGI: 1.81 µM
[29]
  GI50: 4.44 µM
  TGI: 10 µM
[30]
  GI50: 2.6 µM
  TGI: 7.17 µM
[31]
  GI50: 0.756 µM
  TGI: 1.76 µM
[32]
  GI50: 0.756 µM
  TGI: 2.1 µM
[33]
  GI50: 0.951 µM
  TGI: 2.95 µM
[34]
  GI50: 0.756 µM
  TGI: 2.01 µM
[35]
  GI50: 1.01 µM
  TGI: 3.1 µM
[36]
  GI50: 1.34 µM
  TGI: 5.26 µM
[37]
  GI50: 1.17 µM
  TGI: 4.36 µM
[38]
  GI50: 0.932 µM
  TGI: 3.26 µM
[39]
  GI50: 0.651 µM
  TGI: 1.58 µM
[40]
  GI50: 0.706 µM
  TGI: 2.08 µM
[41]
  GI50: 1.6 µM
  TGI: 6.21 µM
[42]
  GI50: 0.653 µM
  TGI: 1.38 µM
[43]
  GI50: 0.566 µM
  TGI: 1.1 µM
[44]
  GI50: 2.1 µM
  TGI: 4.82 µM
[45]
  GI50: 0.605 µM
  TGI: 1.13 µM
[46]
  GI50: 0.597 µM
  TGI: 1.09 µM
[47]
  GI50: 4.8 µM
  TGI: 9.53 µM
[48]
  GI50: 1.92 µM
  TGI: 5.74 µM
[49]
  GI50: 1.16 µM
  TGI: 4.36 µM
[50]
  GI50: 2.58 µM
  TGI: 7.6 µM
[51]
  GI50: 0.638 µM
  TGI: 3.29 µM
[52]
  GI50: 0.569 µM
  TGI: 1.17 µM
[53]
  GI50: 0.633 µM
  TGI: 1.41 µM
[54]
  GI50: 4.77 µM
  TGI: 9.68 µM
[55]
  GI50: 0.631 µM
  TGI: 1.46 µM
[56]
  GI50: 0.632 µM
  TGI: 1.27 µM
[57]
  GI50: 0.576 µM
  TGI: 1.13 µM
[58]
  GI50: 0.847 µM
  TGI: 2.65 µM
